Experimental findings from US8299083B2, “PDE5 inhibitor compositions and methods for treating cardiac indications” (The Johns Hopkins University, priority 2004, dated 2012) are described below.

Data set [1] in a line: Plasma sildenafil levels in healthy volunteers. It is filed as in vivo. Particulars: human, po, 100 mg, 100 mg oral. From the text: Forty healthy volunteers were recruited from the general population in response to advertisements posted in the surrounding community. Subjects were screened by medical history, physical examination, and transthoracic echocardiogram. Individuals with heart disease, atherosclerosis, hypertension, diabetes mellitus, pulmonary hypertension, renal or hepatic disease, smoking, pregnancy, or under treatment with nitrates, adrenergic-blocking drugs, or medicines known to interfere with sildenafil pharmacokinetics were excluded. […] All subjects were instructed to fast for >6 hours prior to study. […] Intravenous dobutamine (5 μg/kg/min) was then administered for 5 minutes to achieve a stable response, and measurements repeated (D1). Dobutamine was discontinued, and 15 minutes provided to return to the baseline state. […] Data were again recorded for a second baseline (B2), and during a second dobutamine infusion (D2) using the identical protocol as for the first test. Plasma sildenafil and its metabolite […] measured in each subject by liquid chromatography and mass spectrometry (SFBC Analytical Labs, North Wales, Pa.).

Data set [2] deals with STAT3. Description: IL-6 induced STAT3 activation in neonatal rat myocytes. In kind it is cell-based. The settings on record: sildenafil 1 μM. As for the experimental part:
(§1) Myocardial tissue extract was electrophoresed in SDS-New Page gel, and probed for both tyrosine phosphorylated (Tyr705) and total Stat3. In additional studies, rat neonatal myocytes were cultured, then exposed to interleukin 6 (IL-6, Cell Signaling, 100 ng/ml) for one hour. […] In other studies, cells were pre-transfected (Lipofectamine™, Invitrogen) with mixed oligonucleotide silencing RNAs for STAT3 (siRNA, SmarTTpool Stat3). Protein extracts were obtained from myocyte extracts after the 1 hour incubation period, and probed for phosphorylated and total protein levels of Stat1 (Tyr701) and Stat3 (Tyr705) (Cell Signaling Inc.). siRNA was transfected into neonatal myocytes.

Another data set relates to PKG-1. Description: Whole heart PKG-1 activity. The settings on record: chronic treatment. It is filed as in vivo, mouse. As for the experimental part: PI3Kα activity was assessed by Elisa assay following immunoprecipitation of PI3K (Seize X IP Kit, Pierce) using a p85α monoclonal antibody (Cell Signaling), with activity measured by fluorescence polarization (Molecular Devices, Perkin-Elmer Victor 3 plate reader). Akt activity (IP with s473-pAkt Ab, GSK-3 fusion protein substrate) was performed using a commercial kit (Cell Signaling Technology, Beverly, Mass.). PKG-1 activity was assayed by calorimetric analysis, CycLex (Clinisciences, Montrouge, FR) from whole heart lysates.

In data set [3] the test system is STAT3. Briefly: STAT3 phosphorylation in TAC hearts. It is filed as in vivo, mouse. As for the experimental part:
as §1

The test system of another data set is myocardial cGMP. Description: Myocardial cyclic nucleotide levels. In kind it is in vivo, mouse. The text has this: Hearts were washed in ice-cold PBS, homogenized in 6% trichloroacetic acid, centrifuged and extracted with water-saturated ether. The aqueous layer was transferred, vacuum dried, and the pellet resuspended in sodium acetate buffer for cAMP and cGMP enzyme immunoassay (Amersham Pharmacia Biotech, Buckinghamshire, UK).

In data set [4] the test system is C57bl6 mice, isoproterenol-stimulated heart. Description: Acute isoproterenol-stimulated contractility in intact mice (pressure-volume relations). It is filed as in vivo, mouse. The protocol:
Isoproterenol (ISO: 20 ng/kg/minutes i.v.×5 min) with or without PDE5A inhibitor was given to anesthetized intact mice, and in vivo heart function assessed by pressure-volume relations at a fixed atrial pacing rate of 600-650 min^−1. Data were measured at baseline, with ISO, re-baseline, PDE5A-inhibition, and PDE5A inhibition+ISO. The ISO-only response was highly reproducible.

Data set [5] has as its system isolated adult murine myocytes. Description: Isoproterenol-stimulated contraction of isolated adult cardiac myocytes. It is filed as cell-based, mouse. The settings on record: sildenafil 100 nM. The protocol: Louis, Mo.) for 6-7 min. Ventricles were gently chopped, filtered (150μ mesh), centrifuged (500 RPM×1 min), and rinsed in Tyrode's solution with increasing calcium (final 1.8 mM Ca^2+). Cells were incubated with 5 μM Indo-1 AM (Molecular Probes), rinsed, and studied at 27° C. by field stimulation in an inverted fluorescence microscope (Diaphot 200; Nikon, Inc). Sarcomere length (IonOptix, MA) and whole cell calcium transients were measured.

Data set [6] deals with C57BL/6 mice, pressure overload by transverse aortic constriction. Description: TAC-induced cardiac hypertrophy, remodeling and fibrosis (heart weight/tibia length, histology). It is filed as in vivo, mouse. From the text:
TAC induced marked heart chamber and cellular hypertrophy (+100% by 3-weeks) that progressed to chamber dilation with reduced fractional shortening after 9 weeks. […] TAC induced a time-dependent increase in myocardial fibrosis and myocyte hypertrophy and both were suppressed by PDE5A inhibition (FIG. 1C, e.g. 67% reduction in fibrosis in 9-week hearts, p<0.0001).
Pressure overload was produced by transverse aortic constriction.
Hearts were fixed with 10% formalin overnight, then embedded in paraffin, sectioned at 5 μm thickness and stained with PAS methenamine. Cardiomyocyte diameter and interstitial collagen fraction were determined using computer-assisted image analysis (Adobe Photoshop 5.0, NIH Image J), with the observer blinded as to tissue source. At least 4-5 different hearts, with five separate fields of cells (total 50-70 cells for each heart) were quantified for cellular analysis.

Where two headings read alike, the source gives them in different places. Bounds are passed on as bounds.

For the molecule `CCCc1nn(C)c2c(=O)[nH]c(-c3cc(S(=O)(=O)N4CCN(C)CC4)ccc3OCC)nc12` [sildenafil], the concentration at 75 min in data set [1] (subjects excluded from analysis, read-out: plasma concentration, mean of four subjects with very low levels) is 3.6 nM; in data set [1] (subjects excluded from analysis, read-out: plasma concentrations, each of four subjects with very low levels), under 6 nM; in data set [1] (Free plasma sildenafil concentration, 75 minutes after dose), 44 ± 29 nM. Moreover, the “IL-6 induced STAT activation” value in the data set with STAT3 [2] is “prevented the STAT activation”. For the same molecule, the “whole heart PKG-1 activity” value in the data set with PKG-1 (TAC hearts) is given as “more than doubled PKG-1 activity”; with PKG-1 (sham controls), “no effect on activity”. For the same molecule, the “STAT3 activation (phosphorylation)” value with STAT3 [3] is listed as “inhibits activation of STAT3”. The “total myocardial cGMP” value in the data set with myocardial cGMP (TAC hearts, chronic co-treatment) is given as “declined”; with myocardial cGMP (sham controls, chronic treatment), “did not change”. Besides, the “myocardial cAMP levels” value in the data set on myocardial cGMP (basal or TAC conditions) is reported as “did not alter myocardial cAMP levels”. Also, in data set [4] (acute intravenous administration), the “isoproterenol-stimulated contractility in intact heart” value is “marked suppression of this adrenergic stimulation response”. Further, the “effect on the heart at rest (dP/dtmax)” value in data set [4] (given alone, no ISO) was “no effect on the heart at rest”. Further, the “isoproterenol-enhanced contraction of isolated cardiac muscle cells” value in data set [5] is recorded as “blunted”. Besides, in data set [6] (1-week TAC, then 2 weeks treatment), the “myocyte hypertrophy and interstitial fibrosis, established hypertrophy” value is given as “both reversed towards baseline”. This molecule had a reduction in fibrosis in data set [6] (9-week TAC hearts) of 67%. Further, the “TAC-induced hypertrophy and chamber remodeling” value in data set [6] (TAC mice, concurrent oral treatment) was “inhibited”. Also, the “reduction of cardiac hypertrophy (heart weight/tibia length)” value in data set [6] (TAC mice, sildenafil 100 mg/kg/day) is listed as “more than 50%”. Further, the “effect on sham-operated controls” value in data set [6] (sham-operated mice) was “no impact”.
